Data taken from US9073880B2, “2-(2-phenylethenyl) 1,3-benzodiazepine derivatives useful for the treatment of cancer” (Yissum Research Development Company of the Hebrew …, priority 2010, dated 2015).

Test system: human breast cancer MDA-MB-468 cells
Assay: Cell proliferation, MDA-MB-468 (Example 4)
Format: cell-based
Settings: MDA-MB-468, breast cancer, compound in 2-hydroxypropyl-β-cyclodextrin
Protocol: Human ovary cancer A2780 cells lines were seeded at a density of 5000 cells/well, human melanoma A375 cells were plated at a density of 2,500 cells/well, human colon carcinoma HCT15 cells were plated at a density of 3,000 cells/well, human prostate carcinoma PC3 cells were plated at a density of 1,500 cells/well, human breast carcinoma MCF7 cells were plated at a density of 5,000 cells/well, human breast carcinoma MDA MB 468 cells were plated at a density of 6,000 cells/well, human myeloma U266, RPMI8226 and CAG cells were plated at a density of 10,000 cells/well. All cells were plated in 96-well plates in 90 μl growth medium containing 10% FCS, 100 units/ml penicillin and 100 μg/ml streptomycin. Compound 3 was added a day later in […] of 1% DMSO in DDW to obtain final concentrations of 0, 0.1, 0.3, 1, 3, and 10 μM. The final concentration of DMSO (0.1% DMSO) was kept constant in all samples. Following exposure of the cells to compound 3 for 72 hours at 37° C., adhered cells were fixed in 0.5% gluteraldehyde in medium for 10 min, washed three times with DDW, once with 0.1M sodium borate buffer pH 8.5 and stained with 1% methylene blue dissolved in 0.1M borate buffer solution for 60 min. Excess dye was washed out and cell-bound dye was eluted with 200 μl/well of 0.1M HCl. The optical density values were read at 630 nm in ELISA plate reader. Non-adhered cells were exposed to WST-1 reagent for 5 hours following 72 hours treatment with the inhibitors, and optical density values were read at 630 nm in ELISA plate reader. The data was analyzed in Microsoft Excel, using the vehicle control as 100% proliferation. The assays were performed in triplicates. The values of IC50 were derived from the dose-dependent growth curves obtained.
Cell proliferation assay was performed as described in Example 2. […]

Structure (SMILES)	IC50 [µM]
O=c1c(O)cc2cnc(/C=C/c3cc(O)c(O)c(Br)c3)sc-2c1O [Compound 3]	4.7
O=c1c(O)cc2cnc(/C=C/c3ccc(O)c(O)c3Br)sc-2c1O [Compound 5]	2.9
